Reference: the NIST ThermoML archive (doi:10.1021/acs.jced.6b00951)

Conditions: 100.3 kPa, Liquid; for viscosity: Capillary tube (Ostwald / Ubbelohde) method; for mass density: Vibrating tube method

O [water]
Conditions	mass density [kg/m3]	viscosity [mPa·s]
288.15 K	–	1.139
293.15 K	–	1.002
298.15 K	–	0.8897
303.15 K	–	0.7988
308.15 K	–	0.7184
313.15 K	–	0.6525
318.15 K	–	0.596
323.15 K	988.04	0.547
328.15 K	985.69	0.5043
